Where a name gives a salt, the structure may show the parent alone. Read-outs that look alike come from different tables or passages of the source.
How the values were obtained:
[1] = test system: S. aureus WCUH29, S. pneumoniae 1629, H. influenzae ATCC 51907, M. catarrhalis Ravisio; assay: MIC of further test compounds against an alternative selection of organisms; assay type: cell-based; details: read-out: MIC values versus some of these organisms
Description: The MIC (μg/ml) of further test compounds against an alternative selection of organisms was determined:
S. aureus WCUH29, S. pneumoniae 1629, H. influenzae ATCC 51907, M. catarrhalis Ravisio.

[2] = MIC of test compounds against various organisms; assay type: cell-based
Description: The MIC (jig/ml) of test compounds against various organisms was determined:
S. aureus Oxford, S. aureus WCUH29, S. pneumoniae 1629, S. pneumoniae N1387, S. pneumoniae ERY 2, E. faecalis I, E. faecalis 7, H. influenzae Ql, H. influenzae NEMC1, M. catarrhalis 1502, E. coli 7623.

[3] = bound holds for all 11 organisms of the panel, read-out: MIC versus all these organisms

Compound	MIC [2, 3] [µg/mL]	further results
COc1ccc2nccc(NC(=O)C3(C(F)(F)F)CCN(CCc4cc5c(nn4)SCC(=O)N5)CC3)c2n1 [Example 24, 1-[2-(6-Oxo-6,7-dihydro-5H-8-thia-1,2,5-triazanaphthalen-3-yl)ethyl]-4-trifluoromethylpiperidine-4-carboxylic acid (6-methoxy-[1,5]naphthyridin-4-yl) amide dihydrochloride]		MIC [1]: ≤ 16 µg/mL
COc1ccc2nccc(NC(=O)C3(C(=O)O)CCN(CCc4ccc5c(c4)NC(=O)CS5)CC3)c2n1 [Example 6, 4-(6-Methoxy-[1,5]naphthyridin-4-ylcarbamoyl)-1-[2-(3-oxo-3,4-dihydro-2H-benzo[1,4]thiazin-6-yl)-ethyl]-piperidine-4-carboxylic acid]		MIC ([2]; bound holds only for some of the 11 organisms of the panel, read-out: MIC versus some of these organisms): ≤ 64 µg/mL
COc1ccc2nccc(NC(=O)C3(C)CCN(CCc4ccc5c(c4)OCO5)CC3)c2n1 [Example 4, 1-(2-Benzo[1,3]dioxol-5-yl-ethyl)4-methylpiperidine-4-carboxylic acid (6-methoxy-[1,5]naphthyridin-4-yl)-amide oxalate]		MIC ([2]; read-out: MIC versus all these organisms): ≤ 16 µg/mL
COc1ccc2nccc(CCC3(O)CCN(C[C@H](O)c4ccc5c(c4)NC(=O)CS5)CC3)c2n1 (racemic) [Example 27, 6-((R,S)-1-Hydroxy-2-(4-hydroxy-4-[2-(6-methoxy-[1,5]naphthyridin-4-yl)ethyl]piperidin-1yl}ethyl)-4H-benzo[1,4]thiazin-3-one]	≤ 4	
COc1ccc2nccc(NC(=O)C3(N)CCN(CC(O)c4cc5c(cc4F)SCC(=O)N5)CC3)c2n1 (stereo not shown) [Example 11, 4-Amino-1-[2-(7-fluoro-3-oxo-3,4-dihydro-2H-benzo[1,4]thiazin-6-yl)-2-R,S-hydroxy-ethyl]-piperidine-4-carboxylic acid (6-methoxy-[1,5]naphthyridin-4-yl)-amide dioxalate]	≤ 16	

More lines, main results first:

MIC [2, 3] [µg/mL]	Compound	further results
≤ 4	COc1ccc2nccc(NC(=O)C3(OC)CCN(CC(O)c4ccc5c(c4)NC(=O)CS5)CC3)c2n1 (stereo not shown) [Example 16, 1-[2-R,S-Hydroxy-2-(3-oxo-3,4-dihydro-2H-benzo[1,4]thiazin-6-yl)-ethyl]-4-methoxy-piperidine-4-carboxylic acid (6-methoxy-[1,5]naphthyridin-4-yl)-amide dihydrochloride]	
≤ 16	COc1ccc2nccc(NC(=O)C3(OC)CCN(C[C@@H](O)c4ccc5c(c4)OCCO5)CC3)c2n1 [Example 17, 1-[2-(2,3-Dihydro-benzo[1,4]dioxin-6-yl)-2-R,S-hydroxy-ethyl]-4-methoxy-piperidine-4-carboxylic acid (6-methoxy-[1,5]naphthyridin-4-yl)-amide dihydrochloride]	
